Tests used:
[1] = biological target: T1, full-length human P2X5 receptor (hP2X5^FL) (Homo sapiens, UniProt Q93086, F216L/F232L); experiment: two-microelectrode voltage clamp, Xenopus laevis oocytes; potentiation of ATP-induced current at […]; format: cell-based; design: gene P2RX5; His-hP2X5^FL, full-length 444 residues including exon 10 (residues 328–349), N-terminal hexahistidine tag; homotrimer
[2] = biological target: T1, full-length human P2X5 receptor (hP2X5^FL); experiment: cell-based; design: gene P2RX5
[3] = biological target: T1, full-length human P2X5 receptor (hP2X5^FL); experiment: two-microelectrode voltage clamp, Xenopus laevis oocytes (agonist concentration-response); format: cell-based; design: gene P2RX5; His-hP2X5^FL, full-length 444 residues including exon 10 (residues 328–349), N-terminal hexahistidine tag; homotrimer

T1 sequence (Q93086 whole entry F216L/F232L, the tested form may be a part): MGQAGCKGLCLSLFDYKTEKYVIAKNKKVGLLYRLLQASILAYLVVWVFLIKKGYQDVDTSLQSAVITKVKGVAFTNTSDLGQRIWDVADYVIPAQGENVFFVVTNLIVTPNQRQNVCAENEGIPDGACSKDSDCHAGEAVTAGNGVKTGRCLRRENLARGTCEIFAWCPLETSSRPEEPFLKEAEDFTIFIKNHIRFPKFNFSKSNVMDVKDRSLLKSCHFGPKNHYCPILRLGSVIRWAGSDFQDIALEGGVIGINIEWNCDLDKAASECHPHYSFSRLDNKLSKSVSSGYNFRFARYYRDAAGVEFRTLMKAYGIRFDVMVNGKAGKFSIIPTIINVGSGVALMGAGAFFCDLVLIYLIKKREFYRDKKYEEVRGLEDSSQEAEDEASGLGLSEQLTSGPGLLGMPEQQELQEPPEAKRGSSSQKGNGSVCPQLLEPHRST

COC(=O)C1=C(C)NC(C)=C(C(=O)OC(C)C)C1c1cccc2nonc12 (stereo not drawn) [isradipine]
two-microelectrode voltage clamp, Xenopus laevis oocytes; potentiation of ATP-in [1]: In contrast, isradipine and nimodipine stimulated the ATP-induced currents.

Nc1ncnc2c1ncn2[C@@H]1O[C@H](COP(=O)(O)OP(=O)(O)OP(=O)(O)O)[C@@H](O)[C@H]1O [ATP]
EC50 [2]: ~39 µM

Nc1ncnc2c1ncn2[C@@H]1O[C@H](COP(=O)(O)OP(=O)(O)OP(=O)(O)O)[C@@H](OC(=O)c2ccc(C(=O)c3ccccc3)cc2)[C@H]1O [BzATP]
two-microelectrode voltage clamp, Xenopus laevis oocytes (agonist concentration- [3]: BzATP, displayed a higher affinity for hP2X5^FL than ATP but a lower efficacy
